Where two headings read alike, the source gives them in different places.

The text below walks through data of paper PMC11314621, “Cheminformatics-Guided Exploration of Synthetic Marine Natural Product-Inspired Brominated Indole-3-Glyoxylamides and Their Potentials for Drug Discovery” (Molecules, 2024).

In one experiment the target is T1, SARS-CoV-2 3CLpro (Severe acute respiratory syndrome coronavirus 2, UniProt P0DTD1).
T1 construct: Each well contained 25 nM of SARS-CoV-2 3CL^Pro and eCFP-Venus biosensor (500 nM)
The experiment in a line: biochemical.

In experiment [1] the target is T2, porcine pancreatic elastase (Sus scrofa, UniProt P00772).
T2 construct: high-purity porcine pancreatic elastase (Sigma, Melbourne, Victoria, Australia, E0258); purchased Sigma E0258
Nature of the experiment: Serine protease assay, elastase. The format is biochemical. As to conditions: remaining enzyme activity. Here is the method: (§1) Serine protease-inhibitory activities for 25–56 were determined in 96 well plates. Each inhibitor was initially tested in duplicate against elastase and chymotrypsin at 10 µM. […] Assays for the inhibition of elastase were undertaken using high-purity porcine pancreatic elastase (Sigma, Melbourne, Victoria, Australia, E0258) in an assay buffer of 50 mM Tris-HCl (pH 8.0) at room temperature. Dilutions of each inhibitor (originally resuspended in DMSO) were prepared in triplicate and then preincubated with 375 ng of elastase for 15 min at room temperature in a total reaction volume of 85 µL. Following this preincubation, 15 µL of 2 mM N-succinyl-Ala-Ala-Ala-p-nitroanilide (Sigma, S4760) in assay buffer was added to each well and kinetic measurement of absorbance at 405 nm (Tecan Spark Plate Reader, Zürich, Switzerland) was undertaken for 30 min. […] Dilutions of each inhibitor were prepared in triplicate and preincubated with 5 µg of chymotrypsin for 10 min at 37 °C in a total reaction volume of 75 µL. After preincubation, 25 µL of 2 mM N-succinyl-Gly-Gly-Phe-p-nitroanilide (Sigma, S1899) was added to each well and kinetic measurement of absorbance at 405 nm was undertaken for 30 min. Inhibitory activity was determined by comparison of the slope of the reaction curve for multiple dilutions of the inhibitor to that of an equivalent solvent control and expressed as IC50 ± standard deviation.

Experiment [2] addresses T3, α-chymotrypsin from bovine pancreas (Bos taurus, UniProt P00766).
T3 construct: α-chymotrypsin from bovine pancreas (Sigma, C4129); purchased Sigma C4129; host or cells: bovine pancreas
The experiment in a line: Serine protease assay, chymotrypsin. The format is biochemical. The settings on record: 10 µM; remaining enzyme activity. The method, then:
as §1

T2 sequence (P00772 27-266): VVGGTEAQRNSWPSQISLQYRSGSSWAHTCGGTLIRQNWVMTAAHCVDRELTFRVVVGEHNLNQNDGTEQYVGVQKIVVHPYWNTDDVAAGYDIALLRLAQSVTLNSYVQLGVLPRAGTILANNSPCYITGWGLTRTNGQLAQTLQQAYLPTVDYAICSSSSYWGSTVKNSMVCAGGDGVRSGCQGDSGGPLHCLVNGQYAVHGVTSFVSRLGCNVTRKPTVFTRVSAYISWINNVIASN

For the compound `C[C@H](NC(=O)C(=O)c1c[nH]c2cc(Br)ccc12)C(=O)O` [Compound 27, 6-bromoindolyl-3-glyoxyl-L-alanine], the “% inhibition @ 20 µM, No DTT” value on SARS-CoV-2 3CLpro (20 µM, no DTT) amounted to 1.9%. At SARS-CoV-2 3CLpro (20 µM, with DTT (4 mM)), the “% inhibition @ 20 µM, DTT” value is listed as 1.3%. Also, the “% enzyme activity @ 10 µM, elastase” value in experiment [1] stood at 109.6%. In addition, the “% enzyme activity @ 10 µM, chymotrypsin” value in experiment [2] is recorded as 94.4%.
On to `C[C@@H](NC(=O)C(=O)c1c[nH]c2cc(Br)ccc12)C(=O)O` [Compound 28, 6-bromoindolyl-3-glyoxyl-D-alanine], for which the “% inhibition @ 20 µM, No DTT” value at SARS-CoV-2 3CLpro (20 µM, no DTT) is on record as 1.7%. In addition, on SARS-CoV-2 3CLpro (20 µM, with DTT (4 mM)), the “% inhibition @ 20 µM, DTT” value was 0.8%. Besides, in experiment [1], the “% enzyme activity @ 10 µM, elastase” value worked out at 107.4%. Besides, the “% enzyme activity @ 10 µM, chymotrypsin” value in experiment [2] worked out at 92.1%.
For `N=C(N)NCCC[C@H](NC(=O)C(=O)c1c[nH]c2ccc(Br)cc12)C(=O)O` [Compound 29, 5-bromoindolyl-3-glyoxyl-L-arginine], in that order: 13.8%, 2.4%, 100.8% and 88.8%.
For `N=C(N)NCCC[C@@H](NC(=O)C(=O)c1c[nH]c2ccc(Br)cc12)C(=O)O` [Compound 30, 5-bromoindolyl-3-glyoxyl-D-arginine], on SARS-CoV-2 3CLpro (20 µM, no DTT), the “% inhibition @ 20 µM, No DTT” value came to 10.1%. Also, the “% inhibition @ 20 µM, DTT” value at SARS-CoV-2 3CLpro (20 µM, with DTT (4 mM)) is 1.0%. In experiment [1], the “% enzyme activity @ 10 µM, elastase” value was 96.2%. Also, the “% enzyme activity @ 10 µM, chymotrypsin” value in experiment [2] worked out at 86.3%.
As to `N=C(N)NCCC[C@H](NC(=O)C(=O)c1c[nH]c2cc(Br)ccc12)C(=O)O` [Compound 31, 6-bromoindolyl-3-glyoxyl-L-arginine], the “% inhibition @ 20 µM, No DTT” value at SARS-CoV-2 3CLpro (20 µM, no DTT) was found to be 4.3%. Also, the “% inhibition @ 20 µM, DTT” value at SARS-CoV-2 3CLpro (20 µM, with DTT (4 mM)) was 2.4%. In experiment [1], the “% enzyme activity @ 10 µM, elastase” value was determined as 99.3%. In experiment [2], the “% enzyme activity @ 10 µM, chymotrypsin” value was found to be 99.5%.
On to `N=C(N)NCCC[C@@H](NC(=O)C(=O)c1c[nH]c2cc(Br)ccc12)C(=O)O` [Compound 32, 6-bromoindolyl-3-glyoxyl-D-arginine], for which the “% inhibition @ 20 µM, No DTT” value on SARS-CoV-2 3CLpro (20 µM, no DTT) was 3.0%. Further, the “% inhibition @ 20 µM, DTT” value at SARS-CoV-2 3CLpro (20 µM, with DTT (4 mM)) is 0.8%. In addition, the “% enzyme activity @ 10 µM, elastase” value in experiment [1] was found to be 102.3%. Moreover, in experiment [2], the “% enzyme activity @ 10 µM, chymotrypsin” value stood at 99.2%.
Turning to `O=C(N[C@@H](CSSC[C@H](NC(=O)C(=O)c1c[nH]c2ccc(Br)cc12)C(=O)O)C(=O)O)C(=O)c1c[nH]c2ccc(Br)cc12` [Compound 33, 5-bromoindolyl-3-glyoxyl-L-cystine], the inhibition at 20 µM was 64.1% at SARS-CoV-2 3CLpro (20 µM, no DTT, read-out: % inhibition @ 20 µM, No DTT) and 2% on SARS-CoV-2 3CLpro (20 µM, with DTT (4 mM), read-out: % inhibition @ 20 µM, DTT). At SARS-CoV-2 3CLpro (no DTT), this compound returned an IC50 of 12.5 µM. Besides, the remaining activity at 10 µM stood at 107% in experiment [1] and 94.7% in experiment [2].
As for `O=C(N[C@@H](CO)C(=O)O)C(=O)c1c[nH]c2cc(Br)ccc12` [Compound 44, 6-bromoindolyl-3-glyoxyl-L-serine], the “% inhibition @ 20 µM, No DTT” value at SARS-CoV-2 3CLpro (20 µM, no DTT) is listed as 7.3%. Further, the “% inhibition @ 20 µM, DTT” value at SARS-CoV-2 3CLpro (20 µM, with DTT (4 mM)) is 2.9%. For the same compound, in experiment [1], the “% enzyme activity @ 10 µM, elastase” value was determined as 99.0%. Also, the “% enzyme activity @ 10 µM, chymotrypsin” value in experiment [2] was 97.1%.
For `O=C(N[C@@H](Cc1ccc(O)cc1)C(=O)O)C(=O)c1c[nH]c2ccc(Br)cc12` [Compound 49, 5-bromoindolyl-3-glyoxyl-L-tyrosine], the “% inhibition @ 20 µM, No DTT” value at SARS-CoV-2 3CLpro (20 µM, no DTT) is given as 15.0%. Also, the “% inhibition @ 20 µM, DTT” value on SARS-CoV-2 3CLpro (20 µM, with DTT (4 mM)) is on record as 1.9%. Also, the “% enzyme activity @ 10 µM, elastase” value in experiment [1] was determined as 99.5%. Also, the “% enzyme activity @ 10 µM, chymotrypsin” value in experiment [2] stood at 82.9%.
For `CC(C)[C@H](NC(=O)C(=O)c1c[nH]c2ccc(Br)cc12)C(=O)O` [Compound 53, 5-bromoindolyl-3-glyoxyl-L-valine], in that order: 1.9%, 1.3%, 101.3% and 91.6%.
For the compound `O=c1c2ccccc2[se]n1-c1ccccc1` [Ebselen, reference compound], the inhibition at 20 µM on SARS-CoV-2 3CLpro (read-out: % inhibition @ 20 µM, DTT) came to 0.2%; on SARS-CoV-2 3CLpro (read-out: % inhibition @ 20 µM, No DTT), 114%.
